# Experimental data: patent US20040091933A1, “Methods for genetic interpretation and prediction of phenotype” (priority 2003, published 2004)
# Tested on: yeast
# Test: Comparison of the transcript profile of clotrimazole-treated yeast with landmark transcript profiles of yeast mutants (correlation coefficient r)
# Format: cell-based
# Conditions: transcript abundances relative to wild-type
# Protocol: FIG. 2(a-f) illustrates the correlation between the transcriptional response profile of yeast treated with clotrimazole and the transcriptional response profiles of yeast with perturbations in SWI4, RPD3, CNA1 CNA2, HMG2 and ERG11 genes. A straight line (higher correlation coefficient, r) indicates the greatest similarity.
# In a preferred embodiment, the similarity between profiles is measured by a weighted correlation coefficient, r, given by Equation 4: [formula]
# xik is […] and xjk is qjk/σjk, where qik and qjk are the logarithms of the expression ratios between the perturbed and baseline conditions for gene k in profiles i and j, respectively, and σik and σjk are the expected root mean square uncertainties in the measurements of qik and qjk, respectively. This is an optimally-weighted measure of correlation between two profiles, given the error estimate, σ, on each data point.
# In many cases, the particular gene in the pathway that is responsible for a particular phenotype can be identified. […]
smiles,measurement,setting,value
Clc1ccccc1C(c1ccccc1)(c1ccccc1)n1ccnc1 [clotrimazole],correlation coefficient r between clotrimazole transcriptional response and landmark profile,landmark: yeast having a disruption of the ERG11 gene (FIG. 2f),0.96
same,correlation coefficient r between clotrimazole transcriptional response and landmark profile,landmark: yeast having a disruption of the HMG2 gene (FIG. 2e),0.83
